This is an account of results in PubChem BioAssay (NCI).

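Step 1: Grow cells in 96-well plates. Step 2: Expose to compound for 48 hours at 5 concentrations. Step 3: Interpolate endpoints linearly; if unreached, use highest concentration. Definition used: TGI = concentration required for complete inhibition of growth.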 Some results are limits rather than exact numbers.

Test systems include A498 renal; BT-549 breast; CCRF-CEM leukemia; HCT-116 colon; HOP-62 NSCLC; HOP-92 NSCLC; K-562 leukemia; M14 melanoma; MCF7 breast; UACC-257 melanoma.
Assay in all cases: NCI-60 cell line screen, 48 h

On to `CC(=O)OCC1OC(Nn2c(=O)[nH]c3ccccc3c2=O)C(OC(C)=O)C(OC(C)=O)C1OC(C)=O` (stereo not given), for which the TGI in the test with A498 renal, in the test with BT-549 breast, in the test on CCRF-CEM leukemia, in the test with HCT-116 colon, with HOP-62 NSCLC and in the test with HOP-92 NSCLC was greater than 100 µM throughout. Moreover, the TGI in the test on K-562 leukemia, with M14 melanoma, with MCF7 breast and in the test with UACC-257 melanoma was greater than 100 µM each time.

`C=C(CCC/C(C)=C/C=C/[C@@H](C)CCCc1ccoc1)C[C@@H]1OC(=O)[C@H](C)[C@@H]1O`: the TGI is 15.3 µM in the test on A498 renal; 17.1 µM in the test on BT-549 breast; 24.6 µM in the test on CCRF-CEM leukemia; greater than 50 µM in the test with HCT-116 colon; 18.3 µM with HOP-62 NSCLC; 19.6 µM in the test with HOP-92 NSCLC. For the same molecule, the TGI in the test with K-562 leukemia was greater than 50 µM; in the test with M14 melanoma, 19.9 µM; with MCF7 breast, 25.2 µM; with UACC-257 melanoma, 15.1 µM.

As to `COc1ccccc1C1ON=C(c2ccc([N+](=O)[O-])cc2)N1C12CC3CC(CC(C3)C1)C2` (stereo not given), the TGI in the test on A498 renal was greater than 100 µM; in the test with BT-549 breast, greater than 100 µM; in the test on CCRF-CEM leukemia, greater than 100 µM; with HCT-116 colon it was greater than 100 µM; with HOP-62 NSCLC, 71.9 µM; in the test with HOP-92 NSCLC, greater than 100 µM. In addition, the TGI in the test on K-562 leukemia, in the test on M14 melanoma, in the test with MCF7 breast and with UACC-257 melanoma was greater than 100 µM each time.

As for `CC(=O)NC1(c2cc3ccccc3s2)CCCCCC1`, the TGI is greater than 100 µM in the test with A498 renal; greater than 100 µM in the test on BT-549 breast; 52.6 µM with CCRF-CEM leukemia; greater than 100 µM with HCT-116 colon; greater than 100 µM in the test with HOP-62 NSCLC; greater than 100 µM with HOP-92 NSCLC. Further, the TGI with K-562 leukemia was 97.3 µM; in the test with M14 melanoma it was greater than 100 µM; in the test with MCF7 breast it was greater than 100 µM; in the test with UACC-257 melanoma it was greater than 100 µM.

For the molecule `CC(C)=CCC/C(C)=C/CC/C(C)=C/CC/C(C)=C/CC/C(C)=C/CC/C(C)=C/CC/C(C)=C/CC/C(C)=C/CC/C(C)=C/CO`, the TGI in the test on A498 renal, in the test with BT-549 breast, in the test with CCRF-CEM leukemia, with HCT-116 colon, in the test with HOP-62 NSCLC and in the test with HOP-92 NSCLC was greater than 100 µM in each case. Further, the TGI with K-562 leukemia, in the test on M14 melanoma, in the test with MCF7 breast and with UACC-257 melanoma was greater than 100 µM each time.

Consider `NC(Cc1ccc(N(CCCl)CCCl)cc1)C(=O)NC(CCC(=O)O)C(=O)O` (stereo not given), for which the TGI in the test on A498 renal, in the test with BT-549 breast, in the test with CCRF-CEM leukemia, with HCT-116 colon, with HOP-62 NSCLC and in the test with HOP-92 NSCLC was greater than 100 µM in each case. Also, the TGI in the test on K-562 leukemia, in the test on M14 melanoma, in the test on MCF7 breast and in the test with UACC-257 melanoma was greater than 100 µM each time.

For the molecule `COc1cc(NCCC2CCCCN2)c2ncccc2c1` (stereo not given), the TGI in the test on A498 renal is greater than 89.6 µM; in the test with BT-549 breast, greater than 100 µM; in the test with CCRF-CEM leukemia, greater than 66.3 µM; in the test with HCT-116 colon it was greater than 67.6 µM; with HOP-62 NSCLC it was greater than 100 µM; in the test with HOP-92 NSCLC it was greater than 100 µM. In addition, the TGI with K-562 leukemia was greater than 66.3 µM; in the test with M14 melanoma, 44.9 µM; in the test on MCF7 breast, 1.96 µM; in the test on UACC-257 melanoma it was 41.1 µM.

Take `Cc1c2c(c(O)c3c(O)cccc13)C(=O)C1(O)C(O)=C(C(=O)NCNc3ccc(C(N)=O)cn3)C(=O)C(N(C)C)C1C2` (stereo not given): the TGI in the test with A498 renal is 9.33 µM; in the test on BT-549 breast, 15.5 µM; in the test on CCRF-CEM leukemia, 8.31 µM; in the test on HCT-116 colon, greater than 100 µM; in the test with HOP-62 NSCLC, greater than 100 µM; in the test on HOP-92 NSCLC, 6.92 µM. For the same molecule, the TGI is 6.26 µM in the test on K-562 leukemia, greater than 100 µM in the test on M14 melanoma, greater than 100 µM with MCF7 breast and greater than 100 µM with UACC-257 melanoma.

As for `O=C1C2=C(CC3=C(C2)CS(=O)(=O)C3)C(=O)C2=C1CC1=C(C2)CS(=O)(=O)C1`, the TGI is greater than 90.9 µM with A498 renal; 44.8 µM in the test with BT-549 breast; 34.3 µM in the test on CCRF-CEM leukemia; 28.5 µM in the test with HCT-116 colon; 37.3 µM in the test with HOP-62 NSCLC; greater than 77.7 µM with HOP-92 NSCLC. Besides, the TGI in the test on K-562 leukemia was greater than 39.1 µM; in the test with M14 melanoma it was greater than 54.9 µM; in the test on MCF7 breast, 35.1 µM; in the test on UACC-257 melanoma it was greater than 61.2 µM.

As for `CC(=O)O[C@H]1CC[C@@]2(C)C(=CC[C@@H]3[C@@H]2CC[C@]2(C)c4c(C)nn(-c5ccccc5)c4C[C@@H]32)C1`, the TGI in the test on A498 renal was 52.8 µM; in the test on BT-549 breast it was 23.8 µM; in the test on CCRF-CEM leukemia, 56.9 µM; in the test on HCT-116 colon, greater than 100 µM; in the test on HOP-62 NSCLC it was 35.2 µM; in the test on HOP-92 NSCLC it was 70.8 µM. Further, the TGI in the test on K-562 leukemia, in the test with M14 melanoma, with MCF7 breast and in the test on UACC-257 melanoma was greater than 100 µM throughout.

Turning to `COC(=O)C(Cc1c[nH]c2ccccc12)NC(=O)c1ccc(-c2ccc(Cl)cc2Cl)o1` (stereo not given), the TGI in the test with A498 renal is 67.9 µM; in the test on BT-549 breast, greater than 100 µM; with CCRF-CEM leukemia, greater than 100 µM; in the test with HCT-116 colon, greater than 100 µM; with HOP-62 NSCLC it was greater than 100 µM; in the test with HOP-92 NSCLC it was 71.4 µM. The TGI in the test on K-562 leukemia is greater than 100 µM; with M14 melanoma, greater than 100 µM; in the test on MCF7 breast, greater than 100 µM; in the test on UACC-257 melanoma, 99.3 µM.
